In patent publication US20100063048A1, “Remedy for angiospasm accompanying subarachnoid hemorrhage containing thrombin receptor antagonist as the active ingredient” (Eisai R&D Mangement Co., Ltd., priority 2004, published 2010):
Entries after “also recorded” stand apart in the source; their conditions may differ.

How the values were obtained:
thrombin = settings: administration to a subarachnoid hemorrhage animal model; cited from earlier work
PAR1 = biological target: T1, PAR1 (Oryctolagus cuniculus, UniProt G1TTP8); assay: Effect of PAR1 antagonist on contractile response of rabbit basilar arteries to thrombin (rabbit double-hemorrhage SAH model); format: in vivo
T1 construct: from tissue; host or cells: rabbit basilar artery (E5555 co-injected with autologous blood into the cistern; artery rings tested ex vivo)
T1 sequence (G1TTP8 1-460): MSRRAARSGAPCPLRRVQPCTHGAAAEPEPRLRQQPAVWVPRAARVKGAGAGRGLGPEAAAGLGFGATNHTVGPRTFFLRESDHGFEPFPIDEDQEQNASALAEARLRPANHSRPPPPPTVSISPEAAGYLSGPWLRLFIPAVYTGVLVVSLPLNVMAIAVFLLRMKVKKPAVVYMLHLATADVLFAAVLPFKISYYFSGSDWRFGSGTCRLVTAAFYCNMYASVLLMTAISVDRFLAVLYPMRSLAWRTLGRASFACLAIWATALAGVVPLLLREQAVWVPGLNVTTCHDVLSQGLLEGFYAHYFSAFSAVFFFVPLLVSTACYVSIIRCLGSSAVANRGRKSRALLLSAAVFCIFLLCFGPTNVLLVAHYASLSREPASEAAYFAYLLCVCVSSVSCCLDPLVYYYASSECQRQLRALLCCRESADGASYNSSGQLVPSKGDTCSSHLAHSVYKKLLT
Procedure: (§1) First, 2.5 ml each of autologous arterial blood was injected into the cisterna magnas twice on Days 0 and 2. Hereinafter, this group is also referred to herein as the “SAH group”. Models injected with equal amounts of saline instead of autologous arterial blood constituted the control group. On Day 7, rabbits from each group were euthanized and endotheliums were removed from the dissected basilar arteries to produce ring preparations (500 μm in width) (FIG. 2). The endothelium-removed basilar artery ring preparations produced in this example were used to perform experiments on contractile response in the following examples.
(§2) Contractile responses to thrombin were determined for the rabbit basilar arteries from the control group and the SAH group. Following contractile response induced by 118 mM K+ depolarization stimulation, the basilar artery ring preparations were stimulated with thrombin. Thrombin is an endogenous ligand of PAR1.
Contractile responses of the rabbit basilar arteries to thrombin were determined for the control group (sham surgery group), the SAH group and the SAH group coexisting with the PAR1 antagonist. Stimulation was given in the same manner as in Example 3.
In this example, the “sham surgery group (sham)” (control rabbit) refers to those obtained by injecting 3 ml saline twice into rabbit cisterns on Days 0 and 2, the “SAH group”(subarachnoid hemorrhage model) refers to those obtained by injecting 3 ml autologous blood twice into rabbit cisterns on Days 0 and 2, and the “SAH+E5555 group” (E5555-administered subarachnoid hemorrhage model) refers to those obtained by injecting 3 ml autologous blood supplemented with 600 μg E5555 twice into rabbit cisterns on Days 0 and 2.
On Day 7, the basilar arteries were removed to assess contractile responses to 118 mM K+ and 1 unit/ml thrombin.
In the same manner as Example 10, contractile responses of the rabbit basilar arteries to thrombin were determined for the control group (the sham surgery group), the SAH group and the SAH group coexisting with the PAR1 antagonist.
In this example, 3 ml each of autologous blood supplemented with 60 ng, 600 ng, 6 μg or 60 μg of E5555 was injected twice into rabbit cistern on Days 0 and 2.

rabbit basilar arteries [1] = assay: Effect of heparinized autologous blood on increased contractile response in SAH group; format: in vivo; settings: models injected twice with heparinized autologous blood (SAH+heparin)
Procedure: as §1
In order to find out the effect of heparin on this increase in the contractile response, an experiment was conducted according to the method of Example 1 using models that had been injected twice with heparinized autologous blood. Heparin forms a complex with anti-thrombin III and becomes an anticoagulant that inactivates blood coagulation factor.

rabbit basilar arteries [2] = assay: Contractile responses of endothelium-removed rabbit basilar artery ring preparations to thrombin / PAR1-AP
Procedure: as §1, §2
Same experiment as Example 3 was performed using PAR1-AP (PAR1-activating peptide) instead of thrombin.

[3] = tested on: α toxin-skinned basilar arteries; assay: Contractile responses of α toxin-skinned basilar arteries to thrombin and PAR1-AP; set-up: species or system rabbit
Procedure: Alpha toxin is a substance that confers permeability to cell membrane. In a rabbit basilar artery that is treated with α toxin for permeabilization (hereinafter, also referred to as an “a toxin-skinned basilar artery”), contractile response associated with increase in calcium ion concentration and contractile response to GTPγS that activates G protein were measured.
Next, contractile responses of a toxin-skinned basilar arteries to thrombin and PAR1-AP were measured.

With `N=C(N)c1ccc2cc(OC(=O)c3ccc(N=C(N)N)cc3)ccc2c1` [FUT-175] as the molecule, how does the angiospasm (thrombin) read?
The angiospasm was “suppress angiospasm”.

What does the source list for `CCOc1cc2c(c(F)c1OCC)C(=N)N(CC(=O)c1cc(N3CCOCC3)c(OC)c(C(C)(C)C)c1)C2` [Formula E5555]?
contractile response of basilar arteries to 1 unit/ml thrombin (PAR1; SAH+E5555 (6 μg) group: autologous blood supplemented with 6 μg injected twice on Days 0 and 2, vs SAH group): smaller than that for the SAH group; contractile response of basilar arteries to 1 unit/ml thrombin (PAR1; SAH+E5555 (6 μg) group: autologous blood supplemented with 6 μg injected twice on Days 0 and 2, vs SAH group, listed as E5050): significantly suppressed; contractile response of basilar arteries to 1 unit/ml thrombin (PAR1; SAH+E5555 (60 μg) group: autologous blood supplemented with 60 μg injected twice on Days 0 and 2, vs SAH group): significantly suppressed; contractile response of basilar arteries to 1 unit/ml thrombin (PAR1; SAH+E5555 group: 3 ml autologous blood supplemented with 600 μg E5555 injected twice into cisterns on Days 0 and 2, arteries removed Day 7, n=3): contraction by 1 unit/ml thrombin was small; also recorded: significantly suppressed the increased reactivity to thrombin; dose of E5555 suppressing increased reactivity to thrombin caused by subarachnoid hemorrhage (dose-dependent) (PAR1; co-administration with autologous blood, 60 ng to 60 μg tested, 1 unit/ml thrombin): ≥ 60 ng

For anti-thrombin III, which angiospasm (thrombin) is on record?
The angiospasm was “suppress angiospasm”.

What does the source list for heparin?
increasement in the contractile response to PAR1-AP (rabbit basilar arteries [1]): decreased significantly; contractile response to thrombin (rabbit basilar arteries [1]; thrombin 1 unit/nil): 41.6±3.0%

Which “concentration from which significant continuous contraction is induced” value (rabbit basilar arteries [2]; SAH group) does the source give for thrombin here?
The value was ≥ 0.3 units/ml.

And the “reversibility of contractile response on washing” value (rabbit basilar arteries [2]; SAH group, Day 7, 1 unit/ml thrombin or 100 μM PAR1-AP)?
Its value is “not changed by washing”.

And the “contractile force (% of 118 mM K+-induced contraction)” value (rabbit basilar arteries [2]; SAH group, thrombin 1 unit/ml)?
Its value is 73.1±2.8%.

And the contraction (rabbit basilar arteries [2]; control group, thrombin 1 unit/ml)?
Its contraction is “did not induce contraction”.

And the “contractile force (% of 118 mM K+-induced contraction)” value (rabbit basilar arteries [2]; control group, thrombin 10 units/ml, mild temporary contraction)?
The value was 21.3±1.2%.

And the “effect on contractile response induced by calcium ion” value ([3]; SAH group)?
Its value is “significantly increased”.

What about the “effect on contractile response induced by calcium ion” value ([3]; control group) of the same molecule?
Its value is “had no effect”.
